What is called IC50 is the concentration at which inhibition is half-maximal. A high value points to a need for much substance. In general, thermodynamic solubility refers to the concentration in solution at equilibrium with solid.

The nature of data set [1]: Intrinsic clearance in liver microsomes, rat. Format: in vitro ADME. To be noted: rat, liver microsomes, pH 7.4, rat liver microsomes, Method 1; read-out: Half-Life (T1/2) (min), Rat. The essentials: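 Compound at 1 μM (0.1–1% DMSO) incubated at 37 °C with mouse or rat liver microsomes (0.5 mg/mL protein) and 1 mM NADPH in PBS pH 7.4; samples taken up to 60 min and quenched in cold acetonitrile. LC-MS/MS of percent remaining gave half-life and CLint; no-NADPH controls run.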

A short description of data set [2]: Intrinsic clearance in liver microsomes, mouse. Type of data set: in vitro ADME. To be noted: pH 7.4, Method 1, read-out: Half-Life (T1/2) (min), Mouse. The protocol:
From stock solution of compound on 10 mM DMSO, a working solution of 0.1 mM is prepared by diluting the compound in DMSO. 6.25 μL of a 20 mg/mL solution of microsomes in PBS pH 7.4 buffer is added to 216.25 μL PBS pH 7.4 buffer (final microsome concentration—0.5 mg/mL). 25 μL of 10 mM solution of NADPH in PBS pH 7.4 buffer is added to the incubations (final NADPH concentration—1 mM). The mixture is pre-warmed to 37° C. for 10 minutes. 2.5 μL of test compound working solution is added (final compound concentration—1 μM with 1% DMSO). Aliquots of 30 μL are taken from the reaction solution at 0.5, 5, 15, 30 and 60 minutes. The reaction was stopped by the addition of 5 volumes of cold acetonitrile with IS (100 nM alprazolam, 200 nM caffeine and 100 nM tolbutamide). Samples were centrifuged at 3, 220 g for 40 minutes. Aliquots of 100 μL of the supernatant are mixed with 100 μL of ultra-pure H2O and used for LC-MS/MS analysis. The percent compound remaining at each time point is calculated with respect to that of the 0.5 min sample. The data are analysed to calculate half-life. Control experiments are run without NADPH and blank samples are prepared using DMSO without the test compound.
A 50 mM stock solution (in DMSO) is prepared for the compound. From the stock solution, a working solution of 0.5 mM is prepared by diluting the compound in DMSO. This concentration of working solution is prepared considering a final concentration of 1 uM with 0.1% DMSO. The compound (1 μL of working solution) is spiked in PBS with pH 7.4 ([…]) at a concentration of 1 μM. Subsequently, 110 μL of 10 mM NADPH is added (as a co-factor). The sample is incubated at 37° C. for 15 min. Following this, pre-warmed liver microsomes (27.5 μL; final protein conc. 0.5 mg/mL) are added. The samples are then incubated at 37° C. Aliquots of samples are withdrawn at 0, 5, 15, 30, 45 and 60 min. The reaction is stopped by using chilled acetonitrile containing internal standard. The samples are centrifuged, and the supernatants analysed by LC-MS/MS. The percent compound remaining at each time point is calculated with respect to that of the 0 min sample. The data are then analysed to calculate half-life and intrinsic clearance (CLint). Control experiments are run without NADPH and blank samples are prepared using DMSO without the test compound.
In general terms: Liver microsomes are a subcellular fraction often used to study metabolism.

Data set [3] can be described thus: Plasma stability assay, rat plasma. Type of data set: in vitro ADME. The conditions noted are these: Method 1 (5 μM). The essentials:
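Compound at 5 μM final (0.5% DMSO) in one protocol or 10 μM (2% DMSO) in the other, incubated in plasma at 37° C.; samples taken 0–120 min and quenched with cold acetonitrile plus internal standard. LC-MS/MS gives percent remaining relative to the 0-min sample.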

In a further data set the target is BRD4 BD1 (Homo sapiens (Human), UniProt O60885). The data set is described as follows: NanoBRET bromodomain assay, NanoLuc-BRD4-BD1 fusion in HEK293 cells. Format: cell-based. To be noted: top concentration 10 μM.
The nature of data set [4]: Thermodynamic solubility in FaSSIF pH 6.5 buffer. Format: physicochemical. The conditions noted are these: FaSSIF buffer, 25 °C, pH 6.5, fassif, thermodynamic from solid, Method 1 (UV-vis, 25° C., 24 hrs). The protocol: FaSSIF v2 buffer is freshly prepared prior to use according to the suppliers' instructions and the pH adjusted to 6.5 using 1 M NaOH or 1 M HCl as required. From 1 mM working solution of test compound in DMSO, the λmax of the test compound is determined by scanning from 200 nm to 700 nm, in 1 nm steps with an EPOCH UV/Visible spectrophotometer (Biotek Instruments Inc.). A 12-point standard curve of compound concentration versus absorption at λmax is generated via two-fold serial dilutions of the 1 mM working solution with DMSO. Approximately 1 mg of test compound is accurately weighed into an Eppendorf tube and the appropriate volume of FaSSIF buffer is added to make a nominal concentration of 1 mg/mL. The tube is incubated on a rotator at 20 rpm, 25° C. for 24 hrs. Samples are then filtered using 0.45 μm filters (Sartorious, CAT #1776C) and the filtrate subjected to UV-vis spectroscopy analysis. The absorption at λmax is compared to the standard curve to determine the concentration of compound in solution after 24 hours.
FaSSIF buffer was prepared according to the suppliers' instructions and the pH adjusted to 6.5 using 1 M NaOH or 1 M HCl as required. […] A stir stick was added to each vial and vials sealed with a moulded PTDE/SIL 96-well plate cover. The plate was shaken at 25° C. at 1,100 rpm using an Eppendorf Thermomixer Comfort plate shaker. The plates were filtered using a vacuum manifold and diluted with a mixture of H2O and acetonitrile containing internal standard. The concentration of the test compound in the filtrate was determined by LCMS analysis with reference to the internal standards to determine the solubility in the buffer.

Data set [5] can be described thus: Plasma stability assay, mouse plasma. Type of data set: in vitro ADME. To be noted: Method 1 (5 μM). As to the method: (§1) From stock solution of compound in 10 mM DMSO, a working solution of 1 mM is prepared by diluting the compound in DMSO. To 398 μL of plasma pre-warmed at 37° C. for 15 minutes), 2 μL of working solution of compound is added, resulting in a final concentration of 5 μM (0.5% DMSO) for the compound. The sample is then incubated at 37° C. Aliquot is withdrawn at specified time-points (0, 15, 30, 60 and 120 mins). The reaction is stopped by addition of 450 μL cold acetonitrile containing internal standard (IS). […] Aliquots of the supernatant is analysed using LC-MS/MS. The percent remaining of the compound at each time point is calculated with respect to the control sample (0 min time-point).
(§2) A working solution of compound (500 μM) is prepared in DMSO (100%). To 735 μL of plasma, 15 μL of working solution of compound is added—resulting in a final concentration of 10 μM (2% DMSO) for the compound. The sample is then incubated at 37° C. Aliquot is withdrawn at time-points—0, 15, 30, 60, 90 and 120 mins. The reaction is stopped by using chilled acetonitrile containing internal standard (IS). The samples are centrifuged and the supernatants analyzed using LC-MS/MS. The percent remaining of the compound at each time point is calculated with respect to the control sample (0 min time-point).

Data set [6] in a line: Plasma stability assay, human plasma. Format: in vitro ADME. To be noted: Method 1 (5 μM). The protocol: as §1, §2
The next data set has as its target BRD4 BD2 (Homo sapiens (Human), UniProt O60885). Briefly: NanoBRET bromodomain assay, NanoLuc-BRD4-BD2 fusion in HEK293 cells.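 Also: tracer displacement BRET read in transfected cells after 2 h compound exposure at 37 °C, signal in milliBRET units corrected against no-tracer background wells.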
A short description of data set [7]: Sprague-Dawley rat pharmacokinetics, IV and PO cassette dosing. Type of data set: in vivo. The essentials: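 Male Sprague-Dawley rats (2 per arm) given up to 5 compounds in cassette, 1 mg/kg IV and 5 mg/kg PO, formulated in 5% DMSO/40% PEG-400/55% water. Plasma from serial blood samples was acetonitrile-precipitated and analysed by LC/MS/MS against matrix-matched standard curves.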

Structures are written as SMILES. In brackets after ≈: the same amount, converted by molar mass.

Protocol for BRD4 BD1: HEK293 cells were transfected using NanoLuc-BRD4-BD1 or NanoLuc-BRD4-BD2 fusion vectors and incubated at 37° C. in an atmosphere of 5% CO2 for 20-24 hours. The transfected cells were then dispensed into 96-well plates using 90 μl cell suspension per well containing 2×10^5 cells/mL in Opti-MEM and 1× final concentration of tracer. 90 μL per well of cell suspension without tracer was also dispensed into at least 3 wells as “No tracer control samples” for background correction. Serially diluted test compounds were prepared at 1000× concentration in DMSO and further diluted to 10× concentration in Opti-MEM. […] Plates were then incubated at 37° C. +5% 002 incubator for 2 hours. […] Donor emission (450 nm) and acceptor emission (610 nm) were measured using PHERAstar (BMG LabTech). For data analysis, the raw BRET ratio was generated and converted to milliBRET units with background correction using the formula: [(Acceptorsample/Donorsample−(Acceptorno tracer control/Donorno tracer control)]×1000. The mBU data was plotted as a function of compound concentration and IC50s for BRET assay were determined by nonlinear regression analysis of concentration response curves using the Collaborative Drug Discovery Vault software. The fold-selectivity was calculated by dividing the IC50 for BRD4 BD1 by the IC50 for BRD4 BD2.

For `CNC(=O)c1[nH]c(C(=O)N[C@H]2CC[C@H](O)CC2)cc1OC(C)c1ccccc1` (single isomer, unassigned) [Example 97, N^5-(trans-4-hydroxycyclohexyl)-N^2-methyl-3-(1-phenylethoxy)-1H-pyrrole-2,5-dicarboxamide], the results for the half-life at 1 μM in data set [1] and in data set [2] were over 60 min and 70 min, respectively. Further, the “Plasma Stability (% remaining at 120 minutes), Rat” value in data set [3] was over 99%. For the same compound, the IC50 against BRD4 BD1 was at least 10000 nM; at BRD4 BD2 (BRD4 BD2 (IC50), NanoBRET, HEK293 cells, top concentration 10 μM), 50 to 200 nM. In [4], the solubility (thermodynamic) at 24 h was 418 µM (≈ 161 µg/mL). The “Plasma Stability (% remaining at 120 minutes), Mouse” value in [5] stood at 93%. The “Plasma Stability (% remaining at 120 minutes), Human” value in data set [6] is given as over 99%. Also, at BRD4 BD2 (IC50 for BRD4 BD1 divided by IC50 for BRD4 BD2, qualitative if an IC50 is at the upper limit), the Fold selectivity entry is “XX (Fold >50 and ≤200)”. Further, the “PO F” value in [7] (PO 5 mg/kg, Method 1) came to 60%. In addition, the half-life in data set [7] (male, Sprague-Dawley, rat, plasma, iv, 1 mg/kg, IV 1 mg/kg, Method 1, read-out: IV T1/2 (converted)) is 1.4 h.

The values above are taken from patent publication US20250263370A1 (Tay Therapeutics Limited, priority 2022, published 2025).
